Where a name gives a salt, the structure may show the parent alone.
Assays:
[1] = test system: ENR+CD organoids (ISC to Paneth cell differentiation); assay: Primary screen: basal (non-stimulated) lysozyme secretion LYZ.NS, 2.5-D 384-well ENR+CD organoid differentiation; assay type: cell-based, mouse; details: primary screen; for Dose.FC.LYZ.NS: FC relative to plate median; for Z.LYZ.NS: standard z score
From the text: (§1) High-throughput screening.

ENR+CD organoids = assay: Primary screen: ATP (CellTiter-Glo 3D, CTG) cell number/viability, 2.5-D 384-well ENR+CD organoids; details: primary screen; for Dose.FC.CTG: FC relative to plate median; for Z.CTG: standard z score;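 on all read-outs here: compounds given at plating and again on day 3 over a 6-day differentiation from ENR+CV stem-cell-enriched precursors, ATP measured on day 6, plate median as control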
[2] = test system: ENR+CD organoids (ISC to Paneth cell differentiation); assay: Primary screen: CCh-stimulated lysozyme secretion LYZ.S, 2.5-D 384-well ENR+CD organoid differentiation; assay type: cell-based, mouse; details: primary screen, FC relative to plate median
From the text: as §1

| SMILES | Dose.FC.LYZ.NS ([1]; dose 0.08 uM) | Z.LYZ.NS ([1]; dose 0.08 uM) | Dose.FC.LYZ.NS ([1]; dose 0.40 uM) | Z.LYZ.NS ([1]; dose 0.40 uM) | Dose.FC.LYZ.NS ([1]; dose 2.00 uM) | Z.LYZ.NS ([1]; dose 2.00 uM) | Dose.FC.LYZ.NS ([1]; dose 10.00 uM) | Z.LYZ.NS ([1]; dose 10.00 uM) | Dose.FC.CTG (ENR+CD organoids; dose 0.08 uM) | Dose.FC.CTG (ENR+CD organoids; dose 0.40 uM) | Dose.FC.CTG (ENR+CD organoids; dose 2.00 uM) | Dose.FC.CTG (ENR+CD organoids; dose 10.00 uM) | Dose.FC.LYZ.S ([2]; dose 0.08 uM) | Dose.FC.LYZ.S ([2]; dose 0.40 uM) | Dose.FC.LYZ.S ([2]; dose 2.00 uM) | Dose.FC.LYZ.S ([2]; dose 10.00 uM) | Z.CTG (ENR+CD organoids; dose 0.08 uM) | Z.CTG (ENR+CD organoids; dose 0.40 uM) | Z.CTG (ENR+CD organoids; dose 2.00 uM) | Z.CTG (ENR+CD organoids; dose 10.00 uM) |
| --- | --- | --- | --- | --- | --- | --- | --- | --- | --- | --- | --- | --- | --- | --- | --- | --- | --- | --- | --- | --- |
| CCc1nc(N)nc(N)c1-c1ccc(Cl)cc1 [Pyrimethamine] | −0.005 log2 fold change | −0.041 | −0.018 log2 fold change | −0.160 | −0.144 log2 fold change | −1.255 | −0.138 log2 fold change | −1.199 | 0.007 log2 fold change | −0.259 log2 fold change | −0.416 log2 fold change | −0.620 log2 fold change | 0.042 log2 fold change | −0.026 log2 fold change | −0.162 log2 fold change | −0.282 log2 fold change | – | – | – | – |
| CC(C)(C)c1cc(NC(=O)Nc2ccc(-c3cn4c(n3)sc3cc(OCCN5CCOCC5)ccc34)cc2)no1 [Quizartinib (AC220)] | 0.096 log2 fold change | 0.836 | 0.039 log2 fold change | 0.341 | −0.052 log2 fold change | −0.452 | −0.173 log2 fold change | −1.505 | 0.351 log2 fold change | 0.149 log2 fold change | −0.352 log2 fold change | −0.644 log2 fold change | 0.154 log2 fold change | 0.083 log2 fold change | −0.077 log2 fold change | −0.200 log2 fold change | 0.838 | 0.355 | −0.841 | −1.539 |
| O=C(NCc1cccc(O)c1)Nc1nc(-c2ccncc2)cs1 [RKI-1447] | −0.006 log2 fold change | −0.055 | −0.092 log2 fold change | −0.803 | −0.009 log2 fold change | −0.077 | −0.183 log2 fold change | −1.594 | −0.397 log2 fold change | −0.184 log2 fold change | −0.226 log2 fold change | −0.342 log2 fold change | −0.056 log2 fold change | −0.064 log2 fold change | −0.017 log2 fold change | −0.297 log2 fold change | −0.948 | −0.441 | −0.540 | −0.816 |
| Cc1nnc(C(=O)NC(C)(C)c2nc(C(=O)NCc3ccc(F)cc3)c(O)c(=O)n2C)o1 [Raltegravir (MK-0518)] | 0.187 log2 fold change | 1.627 | 0.035 log2 fold change | 0.302 | 0.029 log2 fold change | 0.254 | 0.042 log2 fold change | 0.366 | 0.108 log2 fold change | 0.094 log2 fold change | 0.197 log2 fold change | 0.170 log2 fold change | 0.137 log2 fold change | 0.037 log2 fold change | 0.122 log2 fold change | 0.183 log2 fold change | 0.258 | 0.224 | 0.471 | 0.407 |
| CCC(=O)NCC[C@@H]1CCc2ccc3c(c21)CCO3 [Ramelteon] | 0.062 log2 fold change | 0.537 | 0.082 log2 fold change | 0.712 | −0.013 log2 fold change | −0.109 | 0.007 log2 fold change | 0.062 | −0.028 log2 fold change | 0.155 log2 fold change | −0.315 log2 fold change | 0.150 log2 fold change | 0.030 log2 fold change | 0.103 log2 fold change | −0.009 log2 fold change | 0.001 log2 fold change | – | – | – | – |
| CNC(=C[N+](=O)[O-])NCCSCc1ccc(CN(C)C)o1 [Ranitidine] | −0.027 log2 fold change | −0.234 | 0.011 log2 fold change | 0.095 | −0.045 log2 fold change | −0.389 | −0.046 log2 fold change | −0.401 | −0.051 log2 fold change | 0.155 log2 fold change | −0.069 log2 fold change | −0.262 log2 fold change | −0.020 log2 fold change | 0.071 log2 fold change | −0.040 log2 fold change | −0.043 log2 fold change | – | – | – | – |
| C#CCN[C@@H]1CCc2ccccc21 [Rasagiline Mesylate] | 0.072 log2 fold change | 0.631 | 0.013 log2 fold change | 0.117 | 0.048 log2 fold change | 0.417 | −0.034 log2 fold change | −0.294 | 0.154 log2 fold change | 0.103 log2 fold change | 0.041 log2 fold change | 0.104 log2 fold change | 0.140 log2 fold change | 0.077 log2 fold change | 0.014 log2 fold change | 0.026 log2 fold change | – | – | – | – |
| O=C(NC(Cc1cc(=O)[nH]c2ccccc12)C(=O)O)c1ccc(Cl)cc1 (stereo not shown) [Rebamipide] | 0.096 log2 fold change | 0.832 | −0.091 log2 fold change | −0.793 | −0.090 log2 fold change | −0.780 | −0.089 log2 fold change | −0.773 | −0.256 log2 fold change | −0.510 log2 fold change | −0.203 log2 fold change | −0.281 log2 fold change | −0.014 log2 fold change | 0.014 log2 fold change | −0.106 log2 fold change | −0.063 log2 fold change | – | – | – | – |
| CO[C@H]1C[C@@H]2CC[C@@H](C)[C@@](O)(O2)C(=O)C(=O)N2CCCC[C@H]2C(=O)O[C@H]([C@H](C)C[C@@H]2CC[C@@H](OP(C)(C)=O)[C@H](OC)C2)CC(=O)[C@H](C)/C=C(\C)[C@@H](O)[C@@H](OC)C(=O)[C@H](C)C[C@H](C)/C=C/C=C/C=C/1C [Ridaforolimus (Deforolimus, MK-8669)] | 0.005 log2 fold change | 0.041 | 0.116 log2 fold change | 1.012 | 0.074 log2 fold change | 0.646 | 0.027 log2 fold change | 0.237 | 0.423 log2 fold change | 0.066 log2 fold change | 0.276 log2 fold change | 0.211 log2 fold change | 0.050 log2 fold change | 0.069 log2 fold change | 0.019 log2 fold change | 0.039 log2 fold change | 1.011 | 0.157 | 0.659 | 0.505 |
| COc1cc(OC)c(/C=C/S(=O)(=O)Cc2ccc(OC)c(NCC(=O)O)c2)c(OC)c1 [Rigosertib (ON-01910)] | −0.242 log2 fold change | −2.105 | −0.210 log2 fold change | −1.831 | −0.265 log2 fold change | −2.306 | −0.242 log2 fold change | −2.107 | −0.905 log2 fold change | −1.285 log2 fold change | −1.668 log2 fold change | −0.847 log2 fold change | −0.309 log2 fold change | −0.355 log2 fold change | −0.340 log2 fold change | −0.330 log2 fold change | −2.162 | −3.069 | −3.984 | −2.022 |
| Cc1c(C(=O)NN2CCCCC2)nn(-c2ccc(Cl)cc2Cl)c1-c1ccc(Cl)cc1 [Rimonabant] | 0.108 log2 fold change | 0.936 | −0.063 log2 fold change | −0.545 | −0.054 log2 fold change | −0.467 | −0.044 log2 fold change | −0.385 | 0.256 log2 fold change | 0.206 log2 fold change | 0.235 log2 fold change | 0.063 log2 fold change | 0.089 log2 fold change | −0.003 log2 fold change | −0.053 log2 fold change | −0.098 log2 fold change | – | – | – | – |

Source: US20220323406A1, “METHODS AND COMPOSITIONS FOR DIFFERENTIATING STEM CELLS” (Massachusetts Institute of Technology, priority 2019, published 2022)
